Assay results published in paper PMC4658428 (Frontiers in Microbiology, 2015).

How the values were obtained:
Assay type in all cases: cell-based
[1] = test system: LdtR mutant Y81A, lacZ reporter in B. subtilis
[2] = test system: S. meliloti strain SMP4B (ΔldtRSMc-pBBR1MCS-5::LdtR(L61A))
[3] = test system: S. meliloti strain SMP4C (ΔldtRSMc-pBBR1MCS-5::LdtR(F64A))
[4] = test system: S. meliloti strain SMP4A (ΔldtRSMc-pBBR1MCS-5::LdtR(T43A))
[5] = test system: LdtR mutant R37A, lacZ reporter in B. subtilis

For `CCc1oc2ccccc2c1C(=O)c1cc(Br)c(O)c(Br)c1` [benzbromarone], the “decrease in β-galactosidase activity” value [1] was “around 40%”, the “Growth rate constant, k” value [2] was 0.056 ± 0.005 generations/h and the Mean generation time [2] was 17.9 h. For the same molecule, the “Growth rate constant, k” value [3] was 0.058 ± 0.003 generations/h, the Mean generation time [3] was 17.2 h and the “Growth rate constant, k” value [4] was 0.056 ± 0.004 generations/h. For the same molecule, the Mean generation time [4] was 17.9 h and the “decrease in β-galactosidase activity” value [5] was “around 40%”.
